“And” between values parts separate entries of the source, which are not always exact repeats. Identical values can stand only once. Bridges are numbered along the chain shown (N, C = ends). Roman numbers before positions name the chains, in order. Where no end group is shown, it is not given here.
Experiments:
NKG2D [1] = target: T1, NKG2D (Homo sapiens, UniProt P26718); experiment: inhibition of binding of svH1C to NKG2D; details: estimated from fetuin inhibition (Fig 4); read-out: binding constant of svH1C to NKG2D estimated by inhibition of binding by fetuin
T1 construct: the extracellular lectin-type domain was fused at the N-terminus with a human IgG1 Fc domain; purchased R&D Systems, Inc., Minneapolis, MN
T1 sequence (P26718 73-216 limits assumed): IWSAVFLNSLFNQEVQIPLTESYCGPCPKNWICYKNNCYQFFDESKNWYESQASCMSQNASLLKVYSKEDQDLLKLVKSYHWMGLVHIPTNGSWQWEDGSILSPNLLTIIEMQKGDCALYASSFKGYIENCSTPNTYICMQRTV
Protocol: (§1) Isothermal microcalorimetry was performed by TA Instruments Professional Services (New Castle, DE) by titrating 10 μM NKG2D (monomer concentration) (R&D Systems, Inc., Minneapolis, MN) with 100 μM svH1C in 50 mM Tris-HCl, pH 7.5, 150 mM NaCl, 0.1 mM EDTA. Recombinant human receptors were obtained from R&D Systems as chimeric proteins. NKG2D is a type II transmembrane protein and the extracellular lectin-type domain was fused at the N-terminus with a human IgG1 Fc domain. Recombinant siglecs contained a C-terminal IgG1 Fc domain or a His6–10 tag. The lyophilized proteins were reconstituted in phosphate-buffered saline, pH 7.2 (PBS), to 100 μg/mL. The Fc-chimeric proteins were bound to protein A/G-coated wells of microtiter plates (Pierce Biotechnology). His-tagged proteins were bound in Nickel-coated plates (Pierce Biotechnology). Sufficient proteins were added to wells to saturate the binding capacity of the wells. After a wash to remove unbound receptor, wells were blocked with 1% gelatin in wash buffer. […] Absorbance was measured at 450 nm and converted to the amount of streptavidin-peroxidase bound with the specific activity of the conjugate determined under the conditions of the assay. […]
Fig 4 Binding of svH1C to NKG2D. (A) The amount of bound peptide was measured after extensive washing with PBS containing 0.05% Tween-20. […]

NKG2D [2] = target: T1, NKG2D; experiment: isothermal microcalorimetry; assay type: binding
Protocol: as §1, with “wells.” for “wells. After a wash to remove unbound receptor, wells were blocked with 1% gelatin in wash buffer.”
We then assayed binding of svH1C to NKG2D directly by isothermal microcalorimetry. svH1C (100 μM) was titrated into a solution of NKG2D (10 μM, subunit concentration) and changes in heat content of the system were measured. […]

toxicity in vivo = details: statement for svH1C or similar glycan mimetics; no data shown
siglecs = experiment: solid-phase binding of biotinylated tetravalent peptides to siglecs; set-up: species or system human; details: biotinylated peptides 2 μM
Protocol: as §1, with “buffer. Wash buffers were either 10 mM phosphate, pH 7.2; 10 mM HEPES, pH 7.4; or 50 mM Tris-HCl, pH.7.5, each in 150 mM NaCl containing 0.05% Tween-20. Biotinylated peptides were prepared as 2 μM solutions in the wash buffer and 50 μL (100 pmoles) were added to each well and incubated at room temperature for one hour. After four washes with 350 μL buffer containing 0.05% Tween-20, each assay was incubated with 50 μL of 1 μg/mL streptavidin-peroxidase (Sigma-Aldrich, St. Louis, MO).” for “buffer.”
MAA is a mixture of M. amurensis leukoagglutinin (MAL) and M. amurensis hemagglutinin (MAH), both of which along with SNA1 bind preferentially to terminal Neu5Ac-Gal- sequences on complex glycans. Binding of the peptide to several lectins specific for monosaccharides was not detected. […]

[3] = tested on: lectins specific for di- or tri-saccharides that terminate with Neu5Ac-Gal; details: ref [29],[30]; cited from earlier work
Text: We initially identified several sequences of amino acids that bound to specific plant lectins by screening phage display libraries. Sequences were further refined by in silico modeling of docking of a peptide into the sugar binding site of the crystal structures of lectins. These studies predicted that several short peptide sequences, 5 to 8 amino acids in length, would have significant affinity to lectins chosen as analogs of cell-surface receptors. The sequences identified by this approach were incorporated into tetravalent structures, a design based on the concept of avidity as a fun ...

[4] = tested on: lectins that bind monosaccharides; details: ref [29],[30]; cited from earlier work
Text: We initially identified several sequences of amino acids that bound to specific plant lectins by screening phage display libraries. Sequences were further refined by in silico modeling of docking of a peptide into the sugar binding site of the crystal structures of lectins. These studies predicted that several short peptide sequences, 5 to 8 amino acids in length, would have significant affinity to lectins chosen as analogs of cell-surface receptors. […] MAA is a mixture of M. amurensis leukoagglutinin (MAL) and M. amurensis hemagglutinin (MAH), both of which along with SNA1 bind preferentially to terminal Neu5Ac-Gal- sequences on complex glycans. Binding of the peptide to several lectins specific for monosaccharides was not detected. We then assayed binding of svH1C to several siglecs, which comprise a family of cell-surface receptors that are specific for Neu5Ac-Gal/GalNAc- sequ ...

Substance | Kd (NKG2D [1]) | Kd (NKG2D [2]; 100 μM svH1C titrated into 10 μM NKG2D (subunit concentration), 50 mM Tris-HCl, pH 7.5, 150 mM NaCl, 0.1 mM EDTA, read-out: KD) | Kd (NKG2D [2]; abstract, range for siglecs and NKG2D together, read-out: KD, NKG2D (abstract range)) | toxicity in vivo (toxicity in vivo) | binding of biotinylated tetravalent peptides to siglecs (siglecs) | binding to lectins specific for di- or tri-saccharides that terminate with Neu5Ac-Gal [3] | binding to lectins specific for monosaccharides [4]
I: NPSHPLSGGGGSKK-NH2 / II: NPSHPLSGGGGSK / III: NPSHPLSGGGGS / IV: NPSHPLSGGGGS (amide I:13-IV:C, I:14-II:C, II:13-III:C) [svH1C, [(NPSHPLSGGGGS)2K]2K-NH2] | ~1000 nM | 580 nM and 600 nM | 600 to 1000 nM | non-toxic in vivo |  |  | 
NPSHPSLG (also: tetravalent, biotinylated) [svH1D] |  |  |  |  | also bound to siglecs | bound strongly | did not bind

Source: article PMC4482410, “A Peptide Mimetic of 5-Acetylneuraminic Acid-Galactose Binds with High Avidity to Siglecs and NKG2D” (PLoS ONE, 2015)
